We go through 32 compounds from US20090069319A1, “IMIDAZOPYRIDINE ANALOGS AND THEIR USE AS AGONISTS OF THE WNT-BETA-CATENIN CELLULAR MESSAGING SYSTEM” (Wyeth, priority 2007, published 2009).

The assay can be described thus: Functional Dkk1-LRP5-TCF-Luciferase Assay in U2OS Cells (table columns: A=MAX FOLD Induction/DMSO CONTROL; B=fold induction @ 2.0 uM; C=fold induction @ 20.0 uM). Conditions: Homo sapiens, U2OS; for fold induction at 2 µM: 2.0 uM compound; for fold induction at 20 µM: 20.0 uM compound. The format is cell-based, Human. The method, then:
Biological Evaluation—Functional Dkk1-LRP5-TCF-Luciferase Assay in U2OS Cells
U2OS Human Bone derived cells (Osteosarcoma) are grown in McCoy's 5A Medium (Modified), with L-glutamine (GIBCO Cat No. 16600-082)+1% Pen-Strep+5% FBS) plated at 1×10^7 cells/T175 cm flask. The next day, the cells are co-transfected overnight with the following plasmids: (a) Test reporter (16×TCF-TK-FireFly-Luci), (b) Internal Control Reporter (TK-Renilla-Luci), (c) Wnt3a and (d) Dkk1. GIBCO's Lipofectamine 2000 and OptiMEM were used for the transfection. After a minimum of 4 hr of transfection at 37° C., the plasmid-transfected cells are trypsinized, counted, and suspended in freezing medium (95% FBS+5% DMSO). The reporter cells are frozen at 1×10^7/ml concentrations, aliquoted into 0.5 ml or 2.5 ml/tube and stored at −70° C.
The following day, test compounds are added under HTS setup by Plate Track into 384 well plates (white, TC treated, Falcon plate) such that the final concentration of the compounds in 20 μL/well cell will be 5 μg/ml (final concentration of DMSO=0.25% and final compound concentration=20 μM). Vials of frozen reporter cells are thawed by warming the vial in a 37° C. water bath for 60-120 seconds with some shaking until the cells formed a suspension. The thawed cells are transferred into a cold 50 ml (or larger) tube and mixed well by gentle pipetting. The appropriate amount of cold Phenol Red Free RPMI medium-1640 (GIBCO, Cat # 11835-030) with L-glutamine is added, both with ˜5% FBS (GIBCO-BRL, Cat. # 16000-044), so that 20 μl of the final cell suspension will contain ˜5,000 cells. The cell dilution is done such that the final concentration of FBS was ˜5%. Diluted cells (20 μl) are added into each well in a 384 well plate. The plate is incubated at 37° C. under 5% CO2 for ˜20 h. Bright-Glo substrate, 2.5 μl/well is added, and the Fire Fly Luciferase is measured using VLUX (60 second exposure) immediately after the substrate was added. Test compounds are dissolved in DMSO (100%) and added to specified wells. Raw luciferase signal data obtained as relative luminescence units (RLUs) for the test compounds are normalized to the signal of the mean of the sample reporter cell plate with DMSO.
Active compounds have TCF-luciferase ratios of 2.5 fold or greater over DMSO. All compounds show a signal increase of at least 10% compared to a signal with only DMSO added.
A=MAX FOLD Induction/DMSO CONTROL
B=TCF ACTIVITY/DMSO CONTROL Fold induction @ 2.0 uM C=TCF ACTIVITY/DMSO CONTROL Fold induction @ 20.0 uM

SMILES strings stand for the structures.

The term fold induction denotes the signal under treatment as a multiple of the control signal. For the compound `Cn1c(=O)n(C2CCN(S(C)(=O)=O)CC2)c2nccc(-c3ccc4ccccc4c3)c21` [1-methyl-3-[1-(methylsulfonyl)piperidin-4-yl]-7-(2-naphthyl)-1,3-dihydro-2H-imidazo[4,5-b]pyridin-2-one], the fold induction at 2 µM stood at 1.52 and the fold induction at 20 µM is 0.97.
For `Cn1c(=O)n(C2CCN(C(=O)N3CCOCC3)CC2)c2nccc(-c3ccc4ccccc4c3)c21` [1-methyl-3-[1-(morpholin-4-ylcarbonyl)piperidin-4-yl]-7-(2-naphthyl)-1,3-dihydro-2H-imidazo[4,5-b]pyridin-2-one] the same measures were 1.29 and 0.21.
On to `Cn1c(=O)n(C2CCNCC2)c2nccc(-c3ccc4ccccc4c3)c21` [1-methyl-7-(2-naphthyl)-3-piperidin-4-yl-1,3-dihydro-2H-imidazo[4,5-b]pyridin-2-one], for which the fold induction at 2 µM was determined as 1.07.
Still for that read-out and setting: under `c1ccc2cc(-c3cnc4c(c3)nc(-c3ccc5ccccc5c3)n4C3CCNCC3)ccc2c1` [2,6-di-2-naphthyl-3-piperidin-4-yl-3H-imidazo[4,5-b]pyridine] stands 1.06.
With `c1ccc2cc(-c3ccnc4c3nc(-c3ccc5ccccc5c3)n4C3CCNCC3)ccc2c1` [2,7-di-2-naphthyl-3-piperidin-4-yl-3H-imidazo[4,5-b]pyridine], the fold induction at 2 µM was 1.02.
On to `c1ccc2cc(-c3ccnc4c3nc(-c3ccc5c(c3)OCO5)n4C3CCNCC3)ccc2c1` [2-(1,3-benzodioxol-5-yl)-7-(2-naphthyl)-3-piperidin-4-yl-3H-imidazo[4,5-b]pyridine], for which the fold induction at 2 µM came to 1.36.
On to `CC(=O)n1cc(-c2nc3c(-c4ccc5ccccc5c4)ccnc3n2C2CCNCC2)c2ccccc21` [2-(1-acetyl-1H-indol-3-yl)-7-(2-naphthyl)-3-piperidin-4-yl-3H-imidazo[4,5-b]pyridine], for which the fold induction at 2 µM came out at 1.48.
On to `c1ccc2cc(-c3cnc4c(c3)nc(-c3cc5ccccc5o3)n4C3CCNCC3)ccc2c1` [2-(1-benzofuran-2-yl)-6-(2-naphthyl)-3-piperidin-4-yl-3H-imidazo[4,5-b]pyridine], for which the fold induction at 2 µM stood at 1.
Take `c1ccc2cc(-c3ccnc4c3nc(-c3cc5ccccc5o3)n4C3CCNCC3)ccc2c1` [2-(1-benzofuran-2-yl)-7-(2-naphthyl)-3-piperidin-4-yl-3H-imidazo[4,5-b]pyridine]: the fold induction at 2 µM came out at 1.53 and the fold induction at 20 µM worked out at 0.01.
In the case of `c1ccc2cc(-c3cnc4c(c3)nc(-c3ccc5occc5c3)n4C3CCNCC3)ccc2c1` [2-(1-benzofuran-5-yl)-6-(2-naphthyl)-3-piperidin-4-yl-3H-imidazo[4,5-b]pyridine], the fold induction at 2 µM was found to be 0.98.
Regarding `c1ccc2cc(-c3ccnc4c3nc(-c3ccc5occc5c3)n4C3CCNCC3)ccc2c1` [2-(1-benzofuran-5-yl)-7-(2-naphthyl)-3-piperidin-4-yl-3H-imidazo[4,5-b]pyridine], the fold induction at 2 µM was 0.9 and the fold induction at 20 µM worked out at 1.02.
Consider `c1ccc2cc(-c3cnc4c(c3)nc(-c3cc5ccccc5s3)n4C3CCNCC3)ccc2c1` [2-(1-benzothien-2-yl)-6-(2-naphthyl)-3-piperidin-4-yl-3H-imidazo[4,5-b]pyridine], for which the fold induction at 2 µM worked out at 0.92.
For the compound `c1ccc2cc(-c3ccnc4c3nc(-c3cc5ccccc5s3)n4C3CCNCC3)ccc2c1` [2-(1-benzothien-2-yl)-7-(2-naphthyl)-3-piperidin-4-yl-3H-imidazo[4,5-b]pyridine], the fold induction at 2 µM stood at 1.02.
With `c1ccc2cc(-c3ccnc4c3nc(-c3csc5ccccc35)n4C3CCNCC3)ccc2c1` [2-(1-benzothien-3-yl)-7-(2-naphthyl)-3-piperidin-4-yl-3H-imidazo[4,5-b]pyridine], the fold induction at 2 µM amounted to 1.28.
Take `CCn1cnc(-c2nc3c(-c4ccc5ccccc5c4)ccnc3n2C2CCNCC2)c1C` [2-(1-ethyl-5-methyl-1H-imidazol-4-yl)-7-(2-naphthyl)-3-piperidin-4-yl-3H-imidazo[4,5-b]pyridine]: the fold induction at 2 µM turned out to be 1.88.
As for `Cn1ccnc1-c1nc2c(-c3ccc4ccccc4c3)ccnc2n1C1CCNCC1` [2-(1-methyl-1H-imidazol-2-yl)-7-(2-naphthyl)-3-piperidin-4-yl-3H-imidazo[4,5-b]pyridine], the fold induction at 2 µM worked out at 1.84.
Still for that read-out and setting: the same measure for `Cn1c(-c2nc3cc(-c4ccc5ccccc5c4)cnc3n2C2CCNCC2)cc2ccccc21` [2-(1-methyl-1H-indol-2-yl)-6-(2-naphthyl)-3-piperidin-4-yl-3H-imidazo[4,5-b]pyridine]: 1.05; for `Cn1c(-c2nc3c(-c4ccc5ccccc5c4)ccnc3n2C2CCNCC2)cc2ccccc21` [2-(1-methyl-1H-indol-2-yl)-7-(2-naphthyl)-3-piperidin-4-yl-3H-imidazo[4,5-b]pyridine]: 1.17.
The same measure, in the same setting: the same measure for `Cn1cc(-c2nc3cc(-c4ccc5ccccc5c4)cnc3n2C2CCNCC2)c2ccccc21` [2-(1-methyl-1H-indol-3-yl)-6-(2-naphthyl)-3-piperidin-4-yl-3H-imidazo[4,5-b]pyridine]: 1.04.
As to `Cn1cc(-c2nc3c(-c4ccc5ccccc5c4)ccnc3n2C2CCNCC2)c2ccccc21` [2-(1-methyl-1H-indol-3-yl)-7-(2-naphthyl)-3-piperidin-4-yl-3H-imidazo[4,5-b]pyridine], the fold induction at 2 µM came to 1.23.
As to `Cn1cccc1-c1nc2c(-c3ccc4ccccc4c3)ccnc2n1C1CCNCC1` [2-(1-methyl-1H-pyrrol-2-yl)-7-(2-naphthyl)-3-piperidin-4-yl-3H-imidazo[4,5-b]pyridine], the fold induction at 2 µM was 1.52 and the fold induction at 20 µM came to 0.01.
Turning to `c1ccc2cc(-c3cnc4c(c3)nc(-c3cccc5ccccc35)n4C3CCNCC3)ccc2c1` [2-(1-naphthyl)-6-(2-naphthyl)-3-piperidin-4-yl-3H-imidazo[4,5-b]pyridine], the fold induction at 2 µM was found to be 1.11.
For `c1ccc2cc(-c3ccnc4c3nc(-c3cccc5ccccc35)n4C3CCNCC3)ccc2c1` [2-(1-naphthyl)-7-(2-naphthyl)-3-piperidin-4-yl-3H-imidazo[4,5-b]pyridine], the fold induction at 2 µM turned out to be 1.39.
Regarding `c1ccc2cc(-c3ccnc4c3nc(-c3ncc[nH]3)n4C3CCNCC3)ccc2c1` [2-(1H-imidazol-2-yl)-7-(2-naphthyl)-3-piperidin-4-yl-3H-imidazo[4,5-b]pyridine], the fold induction at 2 µM stood at 1.42.
Take `c1ccc2cc(-c3cnc4c(c3)nc(-c3c[nH]c5ccccc35)n4C3CCNCC3)ccc2c1` [2-(1H-indol-3-yl)-6-(2-naphthyl)-3-piperidin-4-yl-3H-imidazo[4,5-b]pyridine]: the fold induction at 2 µM came out at 1.11.
As to `Fc1cccc(-c2nc3c(-c4ccc5ccccc5c4)ccnc3n2C2CCNCC2)c1F` [2-(2,3-difluorophenyl)-7-(2-naphthyl)-3-piperidin-4-yl-3H-imidazo[4,5-b]pyridine], the fold induction at 2 µM is 1.9.
On to `c1ccc2cc(-c3ccnc4c3nc(-c3ccc5c(c3)OCCO5)n4C3CCNCC3)ccc2c1` [2-(2,3-dihydro-1,4-benzodioxin-6-yl)-7-(2-naphthyl)-3-piperidin-4-yl-3H-imidazo[4,5-b]pyridine], for which the fold induction at 2 µM came to 1.18.
Turning to `Clc1ccc(-c2nc3cc(-c4ccc5ccccc5c4)cnc3n2C2CCNCC2)c(Cl)c1` [2-(2,4-dichlorophenyl)-6-(2-naphthyl)-3-piperidin-4-yl-3H-imidazo[4,5-b]pyridine], the fold induction at 2 µM came out at 1.04.
Same read-out and setting: the same measure for `Clc1ccc(-c2nc3c(-c4ccc5ccccc5c4)ccnc3n2C2CCNCC2)c(Cl)c1` [2-(2,4-dichlorophenyl)-7-(2-naphthyl)-3-piperidin-4-yl-3H-imidazo[4,5-b]pyridine]: 1.1.
Take `Fc1ccc(-c2nc3cc(-c4ccc5ccccc5c4)cnc3n2C2CCNCC2)c(F)c1` [2-(2,4-difluorophenyl)-6-(2-naphthyl)-3-piperidin-4-yl-3H-imidazo[4,5-b]pyridine]: the fold induction at 2 µM is 1.22.
Take `Fc1ccc(-c2nc3c(-c4ccc5ccccc5c4)ccnc3n2C2CCNCC2)c(F)c1` [2-(2,4-difluorophenyl)-7-(2-naphthyl)-3-piperidin-4-yl-3H-imidazo[4,5-b]pyridine]: the fold induction at 2 µM was 1.42.
Take `Cc1ccc(-c2nc3cc(-c4ccc5ccccc5c4)cnc3n2C2CCNCC2)c(C)c1` [2-(2,4-dimethylphenyl)-6-(2-naphthyl)-3-piperidin-4-yl-3H-imidazo[4,5-b]pyridine]: the fold induction at 2 µM was 1.31.
